pIC50: −log10 of the molar value.

Our source for the IC50 values is article PMC4319922, “WIP1 Phosphatase as a Potential Therapeutic Target in Neuroblastoma” (PLoS ONE, 2015).

This assay concerns the target T1, WIP1 (wild-type p53-induced phosphatase 1, PPM1D) (Homo sapiens, UniProt O15297).
T1 construct: WIP1-ΔExon6-His-pET-23a+ construct
T1 sequence (O15297 1-420 limits assumed): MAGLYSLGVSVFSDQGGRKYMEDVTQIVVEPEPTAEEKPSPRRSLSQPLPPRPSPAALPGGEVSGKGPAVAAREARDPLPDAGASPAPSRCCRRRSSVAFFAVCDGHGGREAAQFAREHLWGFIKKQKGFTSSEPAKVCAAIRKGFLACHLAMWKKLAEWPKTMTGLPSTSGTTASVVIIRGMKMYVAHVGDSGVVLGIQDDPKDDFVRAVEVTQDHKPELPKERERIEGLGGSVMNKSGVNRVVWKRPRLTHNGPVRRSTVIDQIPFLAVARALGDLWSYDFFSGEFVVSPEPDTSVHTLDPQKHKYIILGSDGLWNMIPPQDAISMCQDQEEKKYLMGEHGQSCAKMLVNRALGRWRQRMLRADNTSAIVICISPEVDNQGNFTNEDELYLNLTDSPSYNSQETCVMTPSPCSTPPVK
Put plainly: in vitro phosphatase assay, free phosphate release (BIOMOL Green), H2AX pS139 phosphopeptide substrate (p53 pS15 peptide:[…]). It is filed as biochemical.

As for `Cc1ncc(Cl)cc1NCc1ccc(C(=O)N[C@@H](CC2CCCC2)C(=O)NC2CC2)s1` [GSK2830371], the pIC50 (commonly the negative decadic logarithm of the IC50, by convention in mol/L) was 6.91.
